Data: publication PMC9781652, “Dinuclear Iron Complexes of Iminopyridine-Based Ligands as Selective Cytotoxins for Tumor Cells and Inhibitors of Cancer Cell Migration” (Pharmaceutics, 2022)

Experiments:
[1] = tested on: NCI-H460 human lung carcinoma cells; test: Cell proliferation assay (MTT), NCI-H460; assay type: cell-based; details: for IC50: 72 h exposure, MTT, mean ± SE; for SI NCI-H460 (selectivity index): ratio IC50 CCD-18Co / IC50 NCI-H460
Protocol: (§1) Cells were seeded into 96-well plates at densities of 1500 cells per well for OVCAR-8, 1900 for NCI-H460, and 4000 for CCD-18Co. After 24 h of incubation, they were treated for 72 h with different concentrations of the compounds (concentration range: 0.01 to 6 μM for OVCAR-8; 0.05 to 2 μM for NCI-H460; and 0.07 to 70 μM for CCD-18Co cells). When indicated, cells were also incubated with 30 µM of the ROS scavenger Manganese (III) 5,10,15,20-tetrakis (4-benzoic acid) porphyrin (MnTBAP) (Calbiochem, San Diego, CA, USA). Cell viability was measured using the MTT assay as previously described. The IC50 value corresponds to the concentration of the assayed compound that is required to inhibit the cell proliferation by 50%, and was calculated by linear interpolation from the obtained growth curves. All data are reported as the mean ± standard error (SE) calculated from at least three independent experiments with three replicates in each.

[2] = tested on: CCD-18Co human colon fibroblasts; test: Cell proliferation assay (MTT), non-tumor CCD-18Co; assay type: cell-based; details: non-tumor cells, 72 h exposure, mean ± SE
Protocol: as §1

[3] = tested on: OVCAR-8 human ovarian carcinoma cells; test: Cell proliferation assay (MTT), OVCAR-8; assay type: cell-based; details: for IC50: 72 h exposure, MTT, mean ± SE; for SI OVCAR-8 (selectivity index): ratio IC50 CCD-18Co / IC50 OVCAR-8
Protocol: as §1

supercoiled pUC18 DNA = test: DNA interaction analysis by agarose gel electrophoresis; assay type: biochemical; details: 24 h, 37 °C
Protocol: The interaction of DNA with the compounds was monitored in an agarose gel electrophoresis as previously described. […] Two other samples were included in the assays: a sample of pUC18 DNA alone as negative control and a sample of pUC18 DNA with 5 µg/mL cisplatin for comparison purposes. […] Gels were stained with ethidium bromide (1 µg/mL in TBE) for 15 min and DNA bands were visualized under UV light.

| SMILES | IC50 [1] [µM] | SI NCI-H460 (selectivity index) [1] | IC50 [2] [µM] | IC50 [3] [µM] | SI OVCAR-8 (selectivity index) [3] | Interaction with pUC18 DNA in the absence of H2O2 (supercoiled pUC18 DNA; 25-100 µM compounds (cisplatin 5 µg/mL), no H2O2) | Effect on pUC18 DNA in the presence of H2O2 at the highest concentrations (supercoiled pUC18 DNA; highest concentrations, with H2O2) |
| --- | --- | --- | --- | --- | --- | --- | --- |
| N.N.O=C([O-])C1(C(=O)[O-])CCC1.[Pt+2] [Carboplatin, carboplatin, reference compound] | 12.8 ± 2.23 | 18.8 | 240 ± 25.2 | 110 ± 4.2 | 2.1 | – | – |
| N.N.[Cl][Pt][Cl] [Cisplatin, cisplatin, reference compound] | 1.01 ± 0.14 | – | 31.2 ± 5.76 | 6.91 ± 1.21 | 4.5 | migration of the CCC form decreases until it co-migrates with the OC form | – |
| CC#N.CC#N.CC#N.CC#N.Cc1cc(N=Cc2ccccn2)c2c(c1)C1CC(O2)Oc2c(N=Cc3ccccn3)cc(C)cc21.Cc1cc(N=Cc2ccccn2)c2c(c1)C1CC(O2)Oc2c(N=Cc3ccccn3)cc(C)cc21.F[B-](F)(F)F.F[B-](F)(F)F.F[B-](F)(F)F.F[B-](F)(F)F.[Fe+2].[Fe+2] [Compound 7, [Fe21_2(CH3CN)4](BF4)4] | 0.43 ± 0.03 | 18.1 | 7.78 ± 5.67 | 1.39 ± 0.14 | 5.6 | – | – |
| CC#N.CC#N.CC#N.CC#N.Cc1cc(N=Cc2cccc(Br)n2)c2c(c1)C1CC(O2)Oc2c(N=Cc3cccc(Br)n3)cc(C)cc21.Cc1cc(N=Cc2cccc(Br)n2)c2c(c1)C1CC(O2)Oc2c(N=Cc3cccc(Br)n3)cc(C)cc21.F[B-](F)(F)F.F[B-](F)(F)F.F[B-](F)(F)F.F[B-](F)(F)F.[Fe+2].[Fe+2] [Compound 8, [Fe22_2(CH3CN)4](BF4)4] | 0.48 ± 0.13 | 14.6 | 7 ± 3.43 | 1.27 ± 0.39 | 5.5 | – | total DNA degradation |
